Test results reported in PubChem BioAssay (NCI).
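Exposure lasted 48 hours, with cells grown in 96-well plates and compounds tested at five concentrations. Here, GI50 denotes the concentration required for 50% inhibition of growth. TGI marks complete inhibition of growth.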

What was measured:
Test in all cases: NCI tumour cell line growth inhibition, 48 h
[1] = system: DMS 114 small cell lung
[2] = system: DMS 273 small cell lung
[3] = system: M19-MEL melanoma
[4] = system: LXFL 529 NSCLC
[5] = system: DLD-1 colon
[6] = system: KM20L2 colon
[7] = system: XF 498 CNS
[8] = system: P388 leukemia
[9] = system: SN12K1 renal
[10] = system: P388/ADR leukemia
[11] = system: RXF-631 renal

## O=c1cc(-c2ccccc2)[nH]c2c(F)ccc(F)c12
[1]
  TGI: > 100 µM
[2]
  TGI: > 100 µM
[3]
  TGI: > 100 µM
[4]
  TGI: > 100 µM
[5]
  TGI: > 100 µM

## CN(C)CC(C)(C)C(=O)/C=C/c1ccccc1
[6]
  TGI: 28.8 µM
[7]
  TGI: 23.8 µM
[1]
  TGI: 29.1 µM
[2]
  TGI: 47.7 µM
[3]
  TGI: 32.2 µM
[4]
  TGI: 24.9 µM
[5]
  TGI: 74.3 µM

## CC1[C@@H]2C[C@@H]3O[C@@]34[C@H]3CCC5Cc6nc7c(nc6C[C@@]5(C)C3(O)CC(=O)[C@@]24CO[C@]12OC(C)(C)CC2O)CC1CC[C@@H]2C3=C[C@H]4O[C@@]5(O[C@@](C)(CO)C[C@@H]5O)C(C)[C@@]4(O)[C@]3(C)[C@@H](O)CC2[C@]1(C)C7 (stereo partly drawn)
[6]
  TGI: 0.244 µM
[8]
  TGI: 0.357 µM
[7]
  TGI: 0.0328 µM
[1]
  TGI: 1.09 µM
[2]
  TGI: 0.0177 µM
[9]
  TGI: 0.666 µM
[10]
  TGI: 0.232 µM
[3]
  TGI: > 3.52 µM
[5]
  TGI: > 3.52 µM

## Cc1cc(N)c2cc(NC(=O)CCCCCCCCC(=O)Nc3ccc4nc(C)cc(N)c4c3)ccc2n1
[6]
  TGI: > 74.3 µM
[7]
  TGI: > 100 µM
[2]
  TGI: > 45.3 µM
[3]
  TGI: > 100 µM
[4]
  TGI: > 100 µM
[5]
  TGI: > 100 µM

## CN(C)CCSc1nccc(-c2ccc(-c3ccnc(SCCN(C)C)n3)s2)n1
[6]
  TGI: 23.6 µM
[8]
  TGI: 3.18 µM
[7]
  TGI: 29.4 µM
[1]
  TGI: 25.5 µM
[2]
  TGI: 22.8 µM
[9]
  TGI: 24.6 µM
[10]
  TGI: 6.74 µM
[3]
  TGI: 26.6 µM
[5]
  TGI: 23 µM

## COc1cccc2c1C(=O)c1c(O)c3c(c(O)c1C2=O)C[C@@](O)(C(=O)CO)CC3OC1CC(NCCCCC(OC(C)=O)OC(C)=O)C(O)C(C)O1 (stereo partly drawn)
[6]
  GI50: 0.000858 µM
  TGI: 0.00875 µM
[11]
  TGI: 0.00803 µM
[1]
  GI50: 0.00083 µM
  TGI: 0.00291 µM
[3]
  GI50: 0.00156 µM
  TGI: 0.00334 µM
[4]
  GI50: 0.00263 µM
[5]
  GI50: 0.00247 µM
  TGI: 0.245 µM

## C[S+](C)C1(c2ccccc2)C(=O)c2ccccc2C1=O
[6]
  TGI: > 100 µM
[7]
  TGI: 94 µM
[1]
  TGI: > 100 µM
[2]
  TGI: > 100 µM
[3]
  TGI: > 100 µM
[4]
  TGI: > 100 µM
[5]
  TGI: > 100 µM
